This note sets out measurements from patent US20260250337A1, “HYBRID ANTIMICROBIAL PEPTIDES” (UNIVERSIDADE FEDERAL DO ABC, priority 2023, published 2026).

No end group written: not given here.

For series [1], the system named is A. baumannii ATCC19606. Briefly: DiSC3(5) assay, cytoplasmic membrane depolarization. Particulars: peptides at their MIC. The class given is cell-based. On the procedure: Method. The cytoplasmatic membrane depolarization activity of two of the naturally occurring peptides (VmCT1 and temporin A) and two of the hybrids (VT and TV) was determined at their MIC by performing the membrane potential-sensitive dye DiSC3(5), as reported previously^105, 106. A. baumannii ATCC19606 cells were grown at 37° C. with agitation to an optical density of 600 nm (OD600) of 0.5, centrifuged, washed twice with buffer (5 mmol L^−1 HEPES, 20 mmol L^−1 glucose, pH 7.2), and resuspended to an OD600 of 0.05 in the same buffer but containing 0.1 mol L^−1 KCl. Cells (100 μL) were incubated for 15 minutes with 20 nmol L^−1 of DiSC3(5) until a stable reduction in fluorescence was observed, indicating the incorporation of the DiSC3(5) into the bacterial membrane. After adding the peptides (100 μL solution at 1.2 μmol L^−1), membrane depolarization was determined by the change observed in the fluorescence emission intensity of the dye at λex=622 nm and […].

Series [2] concerns A. baumannii ATCC19606. The series is described as follows: Skin abscess infection mouse model. Type of series: in vivo, mice. Particulars: for anti-infective activity four days after the treatment, reduction of load of A. baumannii cells / anti-infective activity two days post-treatment: skin infection, peptides onto the abscess at their MIC; for anti-infective activity versus parent peptides: skin scarification mouse model. On the procedure: Skin abscess infection mouse model. The anti-infective activity of the peptides VmCT1, temporin A, VT, and TV against A. baumannii ATCC19606 was evaluated as described by Torres et al.^82. Bacteria were grown in tryptic soy broth medium to an optical density of 0.5 at 600 nm. Cells were washed twice with sterile phosphate buffered saline (pH 7.4, 13,000 rpm for 1 min) and resuspended to a final concentration of 1×10^7 CFU/20 μL. To generate the skin infection, female CD-1 mice (6 weeks-old) were first anesthetized with isoflurane and their backs were shaved. A superficial linear abrasion was made with a needle on the shaved area to injure only the stratum corneum and the upper layer of the epidermis. An aliquot of 20 μL suspension containing 1×10^7 CFU of A. baumannii was then inoculated over the wound area with a pipette tip. The next day, the infected area was inoculated with the peptides (VmCT1, temporin A, VT, and TV), which were administered onto the abscess at their MIC. The animals were euthanized, and the scarified skin area removed 2- and 4-days post-infection. The excised area was homogenized using a bead beater for 20 min (25 Hz) and serially diluted for CFU quantification. Two independent experiments were carried out with 3 mice per group in each condition.

In series [3] the test system is E. cloacae β-12. The series is described as follows: Liquid growth inhibition assay, MIC. The following applies: 37° C., 18 h. Type of series: cell-based, Enterobacter cloacae. An outline of the steps: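 In liquid culture at 37° C., peptide ranged from 0.09 to 50 μmol L^−1 in two-fold steps. The MIC was taken from A595 after 18 h for bacteria in peptone medium and after 24 h for Candida in potato dextrose medium.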

For series [4], the system named is Plasmodium gallinaceum sporozoites. Briefly: Antiplasmodial activity, fluorescence microscopy. Type of series: cell-based. Particulars: for P. gallinaceum (% sporozoites at 0.8 μmol L^−1): fluorescent (propidium iodide stained) sporozoites, 37° C., 1 h; for antiplasmodial activity: P. gallinaceum sporozoites, concentration range tested. On the procedure: Method. The activity of the peptides against Plasmodium gallinaceum sporozoites was determined by fluorescence microscopy, as previously described by Silva et. al.^83. Briefly, 9,000 sporozoites were isolated from the glands of infected Aedes aegypti mosquitos and incubated with serially diluted peptides (ranging from 0.1 to 1.6 μmol L^−1) at 37° C. for 1 h. A PBS solution and the surfactant digitonin^84, 85 were used as negative and positive controls, respectively. Propidium iodide was used to stain dead cells. Assays were executed using fluorescence microscopy. Three biological repeats each with three different mosquito batches (n=9) were used.

Series [5] concerns MCF-7 human breast cancer cells. The series is described as follows: Anticancer activity, MTT assay. The class given is cell-based. Particulars: for MCF-7 4 h LD50 / MCF-7 24 h LD50: MTT. Here is the method: The anticancer activity assays were performed using MCF-10A human breast epithelial cells and MCF-7 mammary cancer cells as previously described by Pedron et al. 86. Briefly, the day before treatment, the cells were incubated at 37° C. and 5% CO2 for 24 h. The cells were treated with peptides ranging from 12.5 to 100 μmol L^−1 (MCF10-A cells) and 0.8 to 100 μmol L^−1 (MCF-7 cells) for 4 h and 24 h at 37° C., and cell viability was measured using 3-(4,5-Dimethylthiazol-2-yl)-2,5-diphenyltetrazolium bromide (MTT) assays 87. Three independent replicates were performed in each case.

Series [6] is described as follows: Resistance to degradation in fetal bovine serum. Type of series: in vitro ADME. Particulars: for remaining at 0.5 h / remaining peptide, 30 min: 30 min; for remaining at 0.5 h: read-out: remaining peptide, 30 min. Summed up: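 Peptide added to fetal bovine serum diluted to 25% in water at 37° C; aliquots taken at 0, 0.5, 1, 2, 4 and 6 h. Remaining peptide quantified by LC peak-area integration relative to time 0; three independent replicates.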

Where [7] appears, read: bovine, fetal bovine serum, 25% in water, fetal bovine serum 25% in water, 37° C.
The mark [8] stands for this setting: fetal bovine serum 25% in water, 37° C.

For the substance “FLGAIGNVLKSIL-NH2 [TV, Phe-Leu-Gly-Ala-Ile-Gly-Asn-Val-Leu-Lys-Ser-Ile-Leu]”, the “cytoplasmic membrane depolarization, DiSC3(5) fluorescence” value in series [1] was “depolarized the cytoplasmic membrane”. Also, in series [2], the “anti-infective activity four days after the treatment, reduction of load of A. baumannii cells” value is “two orders of magnitude”; the “anti-infective activity two days post-treatment” value is given as “increased anti-infective activity when compared to the parent peptides”; the “anti-infective activity versus parent peptides” value is on record as “more potent than that of either parent peptides”. In series [3], the “MIC E. cloacae β-12” value is >50 µM. For the same substance, in series [4], the “P. gallinaceum (% sporozoites at 0.8 μmol L^−1)” value came to 83% and the “antiplasmodial activity” value is on record as “exhibited antiplasmodial activity”.
In the case of “FLGALWNVAKSVF-NH2 [VmCT1, Phe-Leu-Gly-Ala-Len-Trp-Asu-Val-Ala-Lys-Ser-Val-Phe, reference compound]”, in series [5], the “MCF-7 4 h LD50” value was found to be 50 µmol/L and the “MCF-7 24 h LD50” value is 12.5 µmol/L. The “concentration with activity against MCF-7 human breast cancer cells” value in series [5] (incubation time not stated) came out at 50 µmol/L. The share remaining at 0.5 h in series [6] (setting [7]) was ~20%. Also, the amount remaining at 1 h in series [6] (bovine, fetal bovine serum, 25% in water, fetal bovine serum 25% in water, 37° C., 1 h, read-out: remaining peptide, 1 h) is < 10%. Besides, the amount remaining at 2 h in series [6] (bovine, fetal bovine serum, 25% in water, fetal bovine serum 25% in water, 37° C., 2 h, read-out: remaining peptide, 2 h) is < 10%. For the same substance, the “remaining peptide, 30 min” value in series [6] (setting [8]) is “approximately 20%”. Besides, in series [6] (fetal bovine serum 25% in water, 37° C., 1 h), the “remaining peptide, 1 h” value is listed as “less than 10%”. The “MIC E. cloacae β-12” value in series [3] was >50 µM. Also, in series [4], the “P. gallinaceum (% sporozoites at 0.8 μmol L^−1)” value is listed as 93%.
In the case of “FLPLIGRVLSGIL-NH2 [Temporin A, Phe-Leu-Pro-Leu-Ile-Gly-Arg-Val-Leu-Ser-Gly-Ile-Leu, reference compound]”, in series [5], the “MCF-7 4 h LD50” value was 50 µmol/L and the “MCF-7 24 h LD50” value was found to be 50 µmol/L. Also, in series [3], the “MIC E. cloacae β-12” value is >50 µM. Further, in series [4], the “P. gallinaceum (% sporozoites at 0.8 μmol L^−1)” value worked out at 15% and the “antiplasmodial activity” value is given as “no activity”.
Consider “FLPLLWRVASGVF-NH2 [VT, Phe-Leu-Pro-Leu-Leu-Trp-Arg-Val-Ala-Ser-Gly-Val-Phe]”, for which the “cytoplasmic membrane depolarization, DiSC3(5) fluorescence” value in series [1] was “depolarized the cytoplasmic membrane”. For the same substance, in series [2], the “anti-infective activity four days after the treatment, reduction of load of A. baumannii cells” value is “the same effect as the two parent peptides”; the “anti-infective activity two days post-treatment” value is listed as “increased anti-infective activity when compared to the parent peptides”; the “anti-infective activity versus parent peptides” value is recorded as “more potent than that of either parent peptides”. Moreover, in series [3], the “MIC E. cloacae β-12” value is >50 µM. In series [4], the “P. gallinaceum (% sporozoites at 0.8 μmol L^−1)” value came out at 2% and the “antiplasmodial activity” value is “did not exhibit significant antiplasmodial activity”.
Consider “ILGAILNVLKSLG-NH2 [PV, Ile-Leu-Gly-Ala-Ile-Leu-Asn-Val-Leu-Lys-Ser-Leu-Gly]”, for which the fraction remaining at 0.5 h in series [6] (setting [7]) is ~90%. In series [6] (fetal bovine serum), the “time of exposure after which totally degraded” value is listed as 1 h. Further, the “remaining peptide, 30 min” value in series [6] (setting [8]) is reported as ~ 90%. Moreover, the “MIC E. cloacae β-12” value in series [3] is >50 µM. Also, the “P. gallinaceum (% sporozoites at 0.8 μmol L^−1)” value in series [4] amounted to 41%.

What is called amount remaining is what is left of the initial amount, in per cent.
